Among the data in ChEMBL document CHEMBL5465560, “Selectivity Literature for EUbOPEN Chemogenomic Library” (2024) are % of control, % of inhibition and % of engagement values, retold here.

For experiment [1], the target named is T1, Mitogen-activated protein kinase kinase kinase 5 (Homo sapiens) (UniProt Q99683).
T1 sequence (whole entry): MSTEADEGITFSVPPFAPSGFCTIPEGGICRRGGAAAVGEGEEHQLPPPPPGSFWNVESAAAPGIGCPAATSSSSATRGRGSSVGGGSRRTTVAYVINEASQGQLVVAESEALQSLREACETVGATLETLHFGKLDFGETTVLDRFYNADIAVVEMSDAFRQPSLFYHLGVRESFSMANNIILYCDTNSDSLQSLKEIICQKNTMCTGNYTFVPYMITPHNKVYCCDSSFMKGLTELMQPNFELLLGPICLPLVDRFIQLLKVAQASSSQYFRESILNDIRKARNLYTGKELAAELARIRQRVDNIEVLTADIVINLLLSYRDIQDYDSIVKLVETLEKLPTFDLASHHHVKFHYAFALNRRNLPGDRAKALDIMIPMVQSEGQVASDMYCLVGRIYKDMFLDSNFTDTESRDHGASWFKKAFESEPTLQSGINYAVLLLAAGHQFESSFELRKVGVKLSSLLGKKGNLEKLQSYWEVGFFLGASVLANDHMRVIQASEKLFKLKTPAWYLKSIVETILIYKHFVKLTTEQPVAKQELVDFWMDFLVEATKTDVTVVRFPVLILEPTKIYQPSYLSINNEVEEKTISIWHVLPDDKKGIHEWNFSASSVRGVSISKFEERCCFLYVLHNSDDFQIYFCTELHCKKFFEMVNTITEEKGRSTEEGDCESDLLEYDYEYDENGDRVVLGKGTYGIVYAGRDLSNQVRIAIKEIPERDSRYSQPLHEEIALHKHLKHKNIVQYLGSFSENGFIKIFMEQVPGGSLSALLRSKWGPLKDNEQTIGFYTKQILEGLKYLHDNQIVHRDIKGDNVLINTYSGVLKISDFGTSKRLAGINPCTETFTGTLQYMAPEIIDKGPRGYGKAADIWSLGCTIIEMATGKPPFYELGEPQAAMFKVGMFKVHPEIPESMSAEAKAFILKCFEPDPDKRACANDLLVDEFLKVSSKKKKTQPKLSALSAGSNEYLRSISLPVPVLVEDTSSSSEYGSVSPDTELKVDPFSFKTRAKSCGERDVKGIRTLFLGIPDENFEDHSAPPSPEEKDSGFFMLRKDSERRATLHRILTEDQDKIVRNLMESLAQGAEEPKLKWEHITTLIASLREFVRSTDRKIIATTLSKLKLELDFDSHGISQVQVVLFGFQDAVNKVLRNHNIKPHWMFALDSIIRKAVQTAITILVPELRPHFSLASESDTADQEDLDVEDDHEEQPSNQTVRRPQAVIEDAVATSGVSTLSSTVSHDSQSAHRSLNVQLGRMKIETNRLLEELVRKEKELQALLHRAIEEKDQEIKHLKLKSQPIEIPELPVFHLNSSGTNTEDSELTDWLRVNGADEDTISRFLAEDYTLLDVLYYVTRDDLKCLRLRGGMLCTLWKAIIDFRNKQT
Put plainly: Selectivity interaction (KinomeScan (DiscoverX)) EUB0001619a MAP3K5. The conditions noted are these: at 1 µM.

Experiment [2] deals with Myosin-IIIa (Homo sapiens) (UniProt Q8NEV4). Briefly: Selectivity interaction (KinomeScan (DiscoverX)) EUB0001619a MYO3A. The conditions noted are these: at 1 µM.
The target of experiment [3] is Dual specificity tyrosine-phosphorylation-regulated kinase 1A (Homo sapiens, UniProt Q13627). Put plainly: Selectivity interaction (KinomeScan (DiscoverX)) EUB0000607a DYRK1A. The conditions noted are these: at 10 µM.
In experiment [4] the target is Ribosomal protein S6 kinase alpha-1 (Homo sapiens, UniProt Q15418). Put plainly: Selectivity interaction (ActivX KiNativ screen (kinase selectivity in THP-1 cell lysates)) EUB0000639a RPS6KA1. Format: subcellular. The conditions noted are these: lysate, at 5 µM.
For experiment [5], the target named is T2, Inhibitor of nuclear factor kappa-B kinase subunit alpha (Homo sapiens) (UniProt O15111).
T2 sequence (whole entry): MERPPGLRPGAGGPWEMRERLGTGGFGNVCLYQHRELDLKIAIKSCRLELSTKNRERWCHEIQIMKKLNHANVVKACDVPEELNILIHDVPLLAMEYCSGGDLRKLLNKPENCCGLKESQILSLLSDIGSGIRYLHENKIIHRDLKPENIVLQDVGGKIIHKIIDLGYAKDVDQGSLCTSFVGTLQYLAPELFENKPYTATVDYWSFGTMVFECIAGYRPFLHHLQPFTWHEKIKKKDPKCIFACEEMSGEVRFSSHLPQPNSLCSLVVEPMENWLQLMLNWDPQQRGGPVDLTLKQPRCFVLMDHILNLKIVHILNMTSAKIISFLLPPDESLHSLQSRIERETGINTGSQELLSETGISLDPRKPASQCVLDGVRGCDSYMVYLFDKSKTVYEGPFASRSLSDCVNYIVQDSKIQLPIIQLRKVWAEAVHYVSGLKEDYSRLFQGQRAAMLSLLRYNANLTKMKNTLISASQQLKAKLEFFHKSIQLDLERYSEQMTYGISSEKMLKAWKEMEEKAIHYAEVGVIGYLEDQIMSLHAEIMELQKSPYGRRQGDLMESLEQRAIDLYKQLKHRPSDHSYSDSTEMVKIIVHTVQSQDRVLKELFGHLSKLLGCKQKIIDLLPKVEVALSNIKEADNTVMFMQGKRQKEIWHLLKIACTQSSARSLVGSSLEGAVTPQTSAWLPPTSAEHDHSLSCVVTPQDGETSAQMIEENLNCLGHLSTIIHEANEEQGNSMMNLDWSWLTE
Put plainly: Selectivity interaction (KinomeScan (DiscoverX)) EUB0000045b CHUK.

For experiment [6], the target named is Ribosomal protein S6 kinase beta-1 (Homo sapiens, UniProt P23443). Briefly: Selectivity interaction (Kinase panel (literature)) EUB0001199aCl RPS6KB1. The conditions noted are these: at 1 µM.
The target in experiment [7] is Serine/threonine-protein kinase 26 (Homo sapiens, UniProt Q9P289). Put plainly: Selectivity interaction (ProQinase) EUB0000171b STK26.
Experiment [8] addresses Ribosomal protein S6 kinase alpha-4 (Homo sapiens) (UniProt O75676). Briefly: Selectivity interaction (KinomeScan (DiscoverX)) EUB0001049a RPS6KA4. The conditions noted are these: at 1 µM.
For experiment [9], the target named is Serine/threonine-protein kinase WNK1 (Homo sapiens) (UniProt Q9H4A3). Put plainly: Selectivity interaction (Kinase panel (KiNativ target engagement assay in Jurkat cells)) EUB0001635a WNK1. It counts as cell-based. The conditions noted are these: at 1 µM.
Sequence of Serine/threonine-protein kinase WNK1 (Homo sapiens) (Q9H4A3 whole entry, looked up): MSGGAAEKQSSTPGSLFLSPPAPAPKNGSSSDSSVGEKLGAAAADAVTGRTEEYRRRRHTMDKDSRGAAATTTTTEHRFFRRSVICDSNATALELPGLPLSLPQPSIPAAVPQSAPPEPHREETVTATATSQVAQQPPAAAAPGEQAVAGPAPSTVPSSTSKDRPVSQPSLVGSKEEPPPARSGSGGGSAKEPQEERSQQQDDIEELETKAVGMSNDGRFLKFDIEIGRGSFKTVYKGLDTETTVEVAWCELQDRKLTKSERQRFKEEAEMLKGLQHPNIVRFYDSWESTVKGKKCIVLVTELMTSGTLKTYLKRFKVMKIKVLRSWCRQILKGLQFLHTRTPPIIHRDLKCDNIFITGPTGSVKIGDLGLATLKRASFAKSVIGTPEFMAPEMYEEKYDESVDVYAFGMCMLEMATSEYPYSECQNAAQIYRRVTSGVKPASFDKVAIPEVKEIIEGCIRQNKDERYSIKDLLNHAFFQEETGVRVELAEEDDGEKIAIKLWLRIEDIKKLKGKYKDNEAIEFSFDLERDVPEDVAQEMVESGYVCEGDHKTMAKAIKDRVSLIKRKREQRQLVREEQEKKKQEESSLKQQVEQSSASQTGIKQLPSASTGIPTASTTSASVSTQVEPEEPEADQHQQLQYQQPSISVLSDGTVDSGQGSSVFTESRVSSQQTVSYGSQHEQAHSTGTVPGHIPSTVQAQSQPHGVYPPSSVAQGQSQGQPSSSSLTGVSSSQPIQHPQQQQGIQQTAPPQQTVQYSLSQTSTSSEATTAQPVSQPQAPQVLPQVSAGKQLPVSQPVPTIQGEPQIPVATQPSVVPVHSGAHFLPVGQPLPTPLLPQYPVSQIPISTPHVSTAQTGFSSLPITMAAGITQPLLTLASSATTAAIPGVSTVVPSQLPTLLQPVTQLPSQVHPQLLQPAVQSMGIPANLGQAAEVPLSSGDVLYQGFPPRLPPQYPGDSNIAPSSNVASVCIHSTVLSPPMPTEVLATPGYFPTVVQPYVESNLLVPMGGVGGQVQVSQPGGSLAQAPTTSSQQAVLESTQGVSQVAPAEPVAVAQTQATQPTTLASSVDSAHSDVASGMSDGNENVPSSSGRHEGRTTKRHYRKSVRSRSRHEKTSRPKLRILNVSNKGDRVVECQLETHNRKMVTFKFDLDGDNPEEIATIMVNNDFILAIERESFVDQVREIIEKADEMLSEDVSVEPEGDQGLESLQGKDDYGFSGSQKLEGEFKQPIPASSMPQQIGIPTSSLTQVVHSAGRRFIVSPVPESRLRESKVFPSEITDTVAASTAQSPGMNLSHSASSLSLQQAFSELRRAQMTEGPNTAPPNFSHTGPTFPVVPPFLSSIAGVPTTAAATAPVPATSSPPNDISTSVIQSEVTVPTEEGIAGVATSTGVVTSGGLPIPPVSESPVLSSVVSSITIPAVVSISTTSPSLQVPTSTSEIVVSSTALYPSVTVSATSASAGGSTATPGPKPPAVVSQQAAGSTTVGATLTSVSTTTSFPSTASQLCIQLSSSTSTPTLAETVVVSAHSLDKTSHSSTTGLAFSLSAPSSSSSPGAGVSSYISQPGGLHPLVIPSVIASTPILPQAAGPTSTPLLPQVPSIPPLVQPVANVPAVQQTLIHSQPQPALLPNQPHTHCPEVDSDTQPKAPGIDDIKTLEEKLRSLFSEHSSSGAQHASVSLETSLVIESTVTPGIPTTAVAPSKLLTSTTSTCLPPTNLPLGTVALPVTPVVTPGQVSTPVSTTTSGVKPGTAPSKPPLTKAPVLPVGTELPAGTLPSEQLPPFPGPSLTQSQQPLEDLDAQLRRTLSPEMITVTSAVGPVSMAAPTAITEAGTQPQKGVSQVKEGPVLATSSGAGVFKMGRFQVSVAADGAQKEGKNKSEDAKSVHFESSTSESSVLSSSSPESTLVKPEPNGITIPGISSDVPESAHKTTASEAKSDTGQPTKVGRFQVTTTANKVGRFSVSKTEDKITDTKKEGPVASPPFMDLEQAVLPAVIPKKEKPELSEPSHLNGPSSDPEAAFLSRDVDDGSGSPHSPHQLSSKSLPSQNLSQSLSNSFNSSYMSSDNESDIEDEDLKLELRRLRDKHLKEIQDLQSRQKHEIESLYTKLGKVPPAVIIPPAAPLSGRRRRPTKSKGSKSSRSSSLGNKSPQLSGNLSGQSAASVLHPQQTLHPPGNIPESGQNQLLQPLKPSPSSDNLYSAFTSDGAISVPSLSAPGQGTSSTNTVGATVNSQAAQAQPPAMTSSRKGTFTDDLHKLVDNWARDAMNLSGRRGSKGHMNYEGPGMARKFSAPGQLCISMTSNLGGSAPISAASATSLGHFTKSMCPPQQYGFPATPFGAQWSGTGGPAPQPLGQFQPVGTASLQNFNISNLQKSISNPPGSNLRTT

Sequence of Serine/threonine-protein kinase 26 (Q9P289 2-416 limits assumed): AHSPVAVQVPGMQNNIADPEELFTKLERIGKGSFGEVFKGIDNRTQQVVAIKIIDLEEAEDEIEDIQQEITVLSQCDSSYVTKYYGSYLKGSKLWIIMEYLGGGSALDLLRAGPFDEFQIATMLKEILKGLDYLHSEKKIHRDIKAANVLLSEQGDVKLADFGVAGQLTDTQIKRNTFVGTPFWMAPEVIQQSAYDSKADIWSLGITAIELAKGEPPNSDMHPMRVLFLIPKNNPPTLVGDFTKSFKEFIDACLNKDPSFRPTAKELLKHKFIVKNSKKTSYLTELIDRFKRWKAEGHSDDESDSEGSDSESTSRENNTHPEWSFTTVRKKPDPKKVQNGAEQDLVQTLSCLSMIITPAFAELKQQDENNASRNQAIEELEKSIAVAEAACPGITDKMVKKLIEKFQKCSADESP
Sequence of Ribosomal protein S6 kinase alpha-1 (Q15418 whole entry): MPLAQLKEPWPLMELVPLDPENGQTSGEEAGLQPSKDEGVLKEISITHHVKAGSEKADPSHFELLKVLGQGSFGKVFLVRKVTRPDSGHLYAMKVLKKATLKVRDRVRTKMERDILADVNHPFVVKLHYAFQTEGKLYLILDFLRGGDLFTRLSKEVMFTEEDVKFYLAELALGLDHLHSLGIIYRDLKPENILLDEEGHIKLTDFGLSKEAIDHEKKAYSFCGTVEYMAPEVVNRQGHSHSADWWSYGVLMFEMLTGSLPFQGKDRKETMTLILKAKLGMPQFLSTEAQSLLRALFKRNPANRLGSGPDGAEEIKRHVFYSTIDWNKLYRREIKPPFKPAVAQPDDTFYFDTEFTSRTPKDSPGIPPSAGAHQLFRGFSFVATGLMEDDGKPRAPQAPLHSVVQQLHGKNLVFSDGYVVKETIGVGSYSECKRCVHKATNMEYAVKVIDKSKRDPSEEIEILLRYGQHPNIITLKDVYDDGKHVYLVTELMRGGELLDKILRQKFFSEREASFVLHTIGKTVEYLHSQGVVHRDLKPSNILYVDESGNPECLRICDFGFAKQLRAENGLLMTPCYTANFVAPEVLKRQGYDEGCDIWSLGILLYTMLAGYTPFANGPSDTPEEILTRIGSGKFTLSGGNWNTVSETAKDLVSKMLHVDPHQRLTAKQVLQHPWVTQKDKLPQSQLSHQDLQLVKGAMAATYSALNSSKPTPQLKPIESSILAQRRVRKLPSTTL
Sequence of Ribosomal protein S6 kinase beta-1 (P23443 whole entry, looked up): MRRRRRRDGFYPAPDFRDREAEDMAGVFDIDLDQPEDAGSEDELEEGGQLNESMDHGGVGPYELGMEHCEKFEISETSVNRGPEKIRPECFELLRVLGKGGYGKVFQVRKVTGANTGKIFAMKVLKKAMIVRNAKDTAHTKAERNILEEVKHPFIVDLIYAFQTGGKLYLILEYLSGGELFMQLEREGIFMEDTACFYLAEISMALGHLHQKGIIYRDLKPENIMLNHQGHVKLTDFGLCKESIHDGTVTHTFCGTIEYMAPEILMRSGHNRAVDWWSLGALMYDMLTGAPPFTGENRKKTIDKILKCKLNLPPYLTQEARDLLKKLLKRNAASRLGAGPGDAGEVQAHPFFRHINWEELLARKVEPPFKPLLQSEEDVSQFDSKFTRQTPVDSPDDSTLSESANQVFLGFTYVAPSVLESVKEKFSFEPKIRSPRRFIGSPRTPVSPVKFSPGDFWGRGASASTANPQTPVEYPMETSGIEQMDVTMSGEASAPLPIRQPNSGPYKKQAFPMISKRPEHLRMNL
Sequence of Ribosomal protein S6 kinase alpha-4 (Homo sapiens) (O75676 whole entry, looked up): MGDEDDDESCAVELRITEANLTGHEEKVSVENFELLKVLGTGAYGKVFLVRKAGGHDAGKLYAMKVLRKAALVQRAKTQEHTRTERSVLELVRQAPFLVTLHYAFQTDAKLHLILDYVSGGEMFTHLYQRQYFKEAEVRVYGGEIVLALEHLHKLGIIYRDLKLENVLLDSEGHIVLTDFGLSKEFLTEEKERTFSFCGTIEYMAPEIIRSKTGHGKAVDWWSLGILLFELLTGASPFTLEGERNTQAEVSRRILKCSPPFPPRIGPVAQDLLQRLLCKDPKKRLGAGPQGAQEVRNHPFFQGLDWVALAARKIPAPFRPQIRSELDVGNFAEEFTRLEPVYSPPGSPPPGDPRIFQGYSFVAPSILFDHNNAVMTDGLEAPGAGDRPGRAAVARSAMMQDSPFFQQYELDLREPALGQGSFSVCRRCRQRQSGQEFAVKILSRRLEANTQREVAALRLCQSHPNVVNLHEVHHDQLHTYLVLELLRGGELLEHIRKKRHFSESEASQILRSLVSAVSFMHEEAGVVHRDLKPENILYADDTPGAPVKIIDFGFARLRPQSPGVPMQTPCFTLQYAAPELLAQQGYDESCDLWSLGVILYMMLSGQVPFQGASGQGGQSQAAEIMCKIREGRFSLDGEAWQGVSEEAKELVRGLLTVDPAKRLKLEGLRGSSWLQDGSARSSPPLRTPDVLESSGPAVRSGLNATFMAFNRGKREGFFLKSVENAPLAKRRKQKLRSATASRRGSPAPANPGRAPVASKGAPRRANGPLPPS

Turning to `N#Cc1cccc(-c2c[nH]c3ncnc(N4CCOCC4)c23)c1`, the % of control is 26% in [1] and 94% in experiment [2].
For `CNC(=O)Nc1ccc(-c2nc(N3CC4CCC(C3)O4)c3cnn(C4CCC5(CC4)OCCO5)c3n2)cc1`, the % of control in experiment [3] was 100%.
For the compound `CC[C@@H]1[C@H](F)C(=O)N[C@@H]1COc1nccc2cc(C(N)=O)c(OC)cc12` [ZIMLOVISERTIB], the % of inhibition in experiment [4] stood at 21.5%.
As to `C=CC(=O)Nc1cc(-n2c(=O)ccc3cnc4ccc(-c5ccc(NS(C)(=O)=O)cc5)cc4c32)ccc1C`, the % of control in experiment [5] (at 1 µM) and in experiment [5] (at 10 µM) was 100% in each case.
As for `CN1Cc2nccc(-c3cn(C)nc3-c3ccc(F)cc3)c2C1=O`, the % of inhibition in experiment [6] was -3%.
On to `C=CC(=O)Nc1cccc(C(=O)Nc2ccc(Nc3cc(-c4[nH]c(SC)nc4C)ccn3)cc2)c1`, for which the values for the % of control in experiment [7] (at 1 µM) and in experiment [7] (at 5 µM) were 94% and 97%, respectively.
On to `COc1cc(Nc2nc(C)cc(-c3cnn4nc(OC)ccc34)n2)cc(C(F)(F)F)c1`, for which the % of control in [8] stood at 84%.
With `C=CC(=O)Nc1ccc(C(=O)Nc2[nH]nc3c2CN(C(=O)N[C@H](CN(C)C)c2ccccc2)C3(C)C)cc1`, the % of engagement in experiment [9] (Selectivity number of off-targets 0.0, Selectivity number of targets 233.0, Source Knowledge https://www.sciencedirect.com/science/article/pii/S2451945619300674?via%3Dihub) is -16.3%; in [9], -12.9%.
